Measured values: publication PMC4646457 (PLoS ONE, 2015)
Where two headings read alike, the source gives them in different places.

Tests used:
in vivo = settings: female, CB-17 SCID, mouse; for MRT last: MRTlast
plasma proteins = test system: plasma proteins; design: method as in EGF10027 protocol, CIB RM2000/00481/06; settings: mouse, rat, dog, rabbit and human plasma, 1 to 100 µM; ref EGF10027 protocol, CIB RM2000/00481/06; cited from earlier work
[1] = design: method as in EGF10027 protocol, CIB RM2000/00481/06; settings: pregnant rats or rabbits, period of major organogenesis; ref EGF10027 protocol, CIB RM2000/00481/06; cited from earlier work
[2] = ref EGF10027 protocol, CIB RM2000/00481/06, cited from earlier work
[3] = design: method as in EGF10027 protocol, CIB RM2000/00481/06; settings: mice, rats and dogs; ref EGF10027 protocol, CIB RM2000/00481/06; cited from earlier work
[4] = cited from earlier work
[5] = design: method as in EGF10027 protocol, CIB RM2000/00481/06; settings: Ames, CHO and human lymphocyte chromosome aberration, in vivo rat bone marrow; ref EGF10027 protocol, CIB RM2000/00481/06; cited from earlier work
HER2 = HER2 (Homo sapiens, UniProt P04626); assay: Quantitative IHC of phosphorylated HER2 in patient tumor (EGF10027); type: in vivo; settings: for p-HER2 post-treatment OD: plasma […]
[6] = EGF10027 steady-state lapatinib concentrations in patient plasma and tumor; type: in vivo, human; settings: for concentration at 12 h / concentration at 24 h: female, human, oral; for concentration at 12 h: 500 mg
[7] = mice; ref EGF10027 protocol, CIB RM2000/00481/06; cited from earlier work
[8] = BT474 tumor, po, 100 mg/kg, 100 mg/kg BID, multiple doses
[9] = BT474 tumor, po, 100 mg/kg, single dose
[10] = BT474 tumor, po, 200 mg/kg, 200 mg/kg QD, multiple doses
[11] = BT474 tumor, po, 200 mg/kg, single dose
[12] = blood, oral, 100 mg/kg, individual animals 1-3, blood, 100 mg/kg BID
[13] = blood, po, 100 mg/kg, 100 mg/kg BID, multiple doses
[14] = blood, po, 100 mg/kg, single dose
[15] = blood, po, 200 mg/kg, 200 mg/kg QD, multiple doses
[16] = blood, po, 200 mg/kg, single dose
[17] = kidney, oral, 100 mg/kg, single dose
[18] = kidney, oral, 100 mg/kg, individual animals 1-3, kidney, 100 mg/kg BID
[19] = kidney, oral, 200 mg/kg, single dose
[20] = kidney, oral, 200 mg/kg, individual animals 1-3, kidney, 200 mg/kg QD
[21] = kidney, po, 100 mg/kg, 100 mg/kg BID, multiple doses
[22] = kidney, po, 200 mg/kg, 200 mg/kg QD, multiple doses
[23] = liver, oral, 100 mg/kg, single dose
[24] = liver, oral, 100 mg/kg, individual animals 1-3, liver, 100 mg/kg BID
[25] = liver, oral, 200 mg/kg, single dose
[26] = liver, oral, 200 mg/kg, individual animals 1-3, liver, 200 mg/kg QD
[27] = liver, po, 100 mg/kg, 100 mg/kg BID, multiple doses
[28] = liver, po, 200 mg/kg, 200 mg/kg QD, multiple doses
[29] = tumor, oral, 100 mg/kg, individual animals 1-3, tumor, 100 mg/kg BID
[30] = tumor, oral, 200 mg/kg, individual animals 1-3, tumor, 200 mg/kg QD

HER2, sequence (P04626 23-1255): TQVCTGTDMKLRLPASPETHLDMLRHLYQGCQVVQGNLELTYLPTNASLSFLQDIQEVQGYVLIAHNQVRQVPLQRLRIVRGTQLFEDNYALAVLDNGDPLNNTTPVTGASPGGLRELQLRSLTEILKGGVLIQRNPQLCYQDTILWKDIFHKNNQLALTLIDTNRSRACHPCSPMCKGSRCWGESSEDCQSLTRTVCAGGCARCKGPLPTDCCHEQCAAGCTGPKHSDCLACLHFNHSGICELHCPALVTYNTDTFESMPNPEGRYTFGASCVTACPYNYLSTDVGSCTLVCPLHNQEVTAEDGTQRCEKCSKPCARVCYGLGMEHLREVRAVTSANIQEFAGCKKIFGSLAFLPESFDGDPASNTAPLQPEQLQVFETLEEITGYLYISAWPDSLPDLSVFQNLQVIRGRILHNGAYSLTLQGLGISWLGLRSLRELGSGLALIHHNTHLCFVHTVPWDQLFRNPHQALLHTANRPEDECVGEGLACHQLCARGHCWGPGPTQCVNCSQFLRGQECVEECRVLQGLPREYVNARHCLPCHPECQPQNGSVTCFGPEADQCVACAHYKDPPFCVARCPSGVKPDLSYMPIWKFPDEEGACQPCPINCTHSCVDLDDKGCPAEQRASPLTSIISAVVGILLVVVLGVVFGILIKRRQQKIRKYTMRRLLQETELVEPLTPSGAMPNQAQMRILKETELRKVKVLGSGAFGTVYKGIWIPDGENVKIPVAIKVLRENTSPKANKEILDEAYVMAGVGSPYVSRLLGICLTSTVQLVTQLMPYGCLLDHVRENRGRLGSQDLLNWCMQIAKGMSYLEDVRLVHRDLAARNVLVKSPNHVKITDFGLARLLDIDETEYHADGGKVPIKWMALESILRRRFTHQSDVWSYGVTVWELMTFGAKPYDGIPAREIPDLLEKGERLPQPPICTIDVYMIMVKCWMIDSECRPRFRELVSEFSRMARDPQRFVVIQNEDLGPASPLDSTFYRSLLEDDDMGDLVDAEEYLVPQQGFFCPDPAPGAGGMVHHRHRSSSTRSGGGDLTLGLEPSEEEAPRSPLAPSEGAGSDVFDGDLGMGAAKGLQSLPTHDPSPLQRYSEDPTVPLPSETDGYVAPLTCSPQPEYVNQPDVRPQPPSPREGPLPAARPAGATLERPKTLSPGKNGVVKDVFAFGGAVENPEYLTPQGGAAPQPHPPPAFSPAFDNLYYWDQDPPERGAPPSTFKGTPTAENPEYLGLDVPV

SMILES: CS(=O)(=O)CCNCc1ccc(-c2ccc3ncnc(Nc4ccc(OCc5cccc(F)c5)c(Cl)c4)c3c2)o1 [lapatinib]
- concentration at 96 h (in vivo; BT474 tumor, oral, 200 mg/kg, individual animals 1-3, tumor, 200 mg/kg QD): 915 ng/mL
- AUC(0-t) (in vivo; BT474 tumor, po, 100 mg/kg, AUClast, 100 mg/kg BID, multiple doses): 1120 µg·h/mL
- AUC(0-t) (in vivo; BT474 tumor, po, 100 mg/kg, AUClast, single dose): 313 µg·h/mL
- Cmax (in vivo; [8]): 55800 ng/mL
- Cmax (in vivo; [9]): 24900 ng/mL
- MRT last (in vivo; [8]): 20.5 h
- MRT last (in vivo; [9]): 12.6 h
- Tmax (in vivo; [8]): 4 h
- Tmax (in vivo; [9]): 12 h
- AUC(0-t) (in vivo; BT474 tumor, po, 200 mg/kg, AUClast, 200 mg/kg QD, multiple doses): 1320 µg·h/mL
- AUC(0-t) (in vivo; BT474 tumor, po, 200 mg/kg, AUClast, single dose): 579 µg·h/mL
- Cmax (in vivo; [10]): 79200 ng/mL
- Cmax (in vivo; [11]): 44000 ng/mL
- MRT last (in vivo; [10]): 18.7 h
- MRT last (in vivo; [11]): 17.5 h
- Tmax (in vivo; [10]): 10 h
- Tmax (in vivo; [11]): 1 h
- half-life (in vivo; blood, liver, kidney, tumor, oral, 100 mg/kg): 4 h
- concentration at 10 h (in vivo; [12]): 3080 ng/mL
- concentration at 24 h (in vivo; [12]): 95.2 ng/mL
- concentration at 24 h (in vivo; blood, oral, 200 mg/kg, individual animals 1-3, blood, 200 mg/kg QD): 28 ng/mL
- AUC(0-t) (in vivo; blood, po, 100 mg/kg, AUClast, 100 mg/kg BID, multiple doses): 102 µg·h/mL
- AUC(0-t) (in vivo; blood, po, 100 mg/kg, AUClast, single dose): 46.7 µg·h/mL
- Cmax (in vivo; [13]): 9350 ng/mL
- Cmax (in vivo; [14]): 7040 ng/mL
- MRT last (in vivo; [13]): 6.9 h
- MRT last (in vivo; [14]): 6.3 h
- Tmax (in vivo; [13]): 1 h
- Tmax (in vivo; [14]): 1 h
- AUC(0-t) (in vivo; blood, po, 200 mg/kg, AUClast, 200 mg/kg QD, multiple doses): 152 µg·h/mL
- AUC(0-t) (in vivo; blood, po, 200 mg/kg, AUClast, single dose): 88.2 µg·h/mL
- Cmax (in vivo; [15]): 16100 ng/mL
- Cmax (in vivo; [16]): 8220 ng/mL
- MRT last (in vivo; [15]): 7.3 h
- MRT last (in vivo; [16]): 8.5 h
- Tmax (in vivo; [15]): 10 h
- Tmax (in vivo; [16]): 12 h
- AUC(0-t) (in vivo; kidney, oral, 100 mg/kg, AUClast, single dose): 267 µg·h/mL
- Cmax (in vivo; [17]): 29800 ng/mL
- concentration at 1 h (in vivo; [18]): 57200 ng/mL
- concentration at 4 h (in vivo; [18]): 72300 ng/mL
- concentration at 48 h (in vivo; [18]): 114 ng/mL
- concentration at 72 h (in vivo; [18]): 94.5 ng/mL
- concentration at 96 h (in vivo; [18]): 47.9 ng/mL
- MRT last (in vivo; [17]): 7.7 h
- Tmax (in vivo; [17]): 1 h
- AUC(0-t) (in vivo; kidney, oral, 200 mg/kg, AUClast, single dose): 633 µg·h/mL
- Cmax (in vivo; [19]): 64900 ng/mL
- concentration at 1 h (in vivo; [20]): 48300 ng/mL
- concentration at 24 h (in vivo; [20]): 144 ng/mL
- concentration at 72 h (in vivo; [20]): 77.3 ng/mL
- concentration at 96 h (in vivo; [20]): 49.9 ng/mL
- MRT last (in vivo; [19]): 9 h
- Tmax (in vivo; [19]): 12 h
- AUC(0-t) (in vivo; kidney, po, 100 mg/kg, AUClast, 100 mg/kg BID, multiple doses): 1170 µg·h/mL
- Cmax (in vivo; [21]): 98500 ng/mL
- MRT last (in vivo; [21]): 8.4 h
- Tmax (in vivo; [21]): 10 h
- AUC(0-t) (in vivo; kidney, po, 200 mg/kg, AUClast, 200 mg/kg QD, multiple doses): 1320 µg·h/mL
- Cmax (in vivo; [22]): 136000 ng/mL
- MRT last (in vivo; [22]): 8 h
- Tmax (in vivo; [22]): 10 h
- AUC(0-t) (in vivo; liver, oral, 100 mg/kg, AUClast, single dose): 414 µg·h/mL
- Cmax (in vivo; [23]): 46700 ng/mL
- concentration at 1 h (in vivo; [24]): 107000 ng/mL
- concentration at 4 h (in vivo; [24]): 90700 ng/mL
- concentration at 48 h (in vivo; [24]): 193 ng/mL
- concentration at 72 h (in vivo; [24]): 121 ng/mL
- concentration at 96 h (in vivo; [24]): 66.9 ng/mL
- MRT last (in vivo; [23]): 7.5 h
- Tmax (in vivo; [23]): 1 h
- AUC(0-t) (in vivo; liver, oral, 200 mg/kg, AUClast, single dose): 1050 µg·h/mL
- Cmax (in vivo; [25]): 110000 ng/mL
- concentration at 1 h (in vivo; [26]): 137000 ng/mL
- concentration at 4 h (in vivo; [26]): 223000 ng/mL
- concentration at 48 h (in vivo; [26]): 173 ng/mL
- concentration at 72 h (in vivo; [26]): 101 ng/mL
- concentration at 96 h (in vivo; [26]): 98.3 ng/mL
- MRT last (in vivo; [25]): 9.4 h
- Tmax (in vivo; [25]): 12 h
- AUC(0-t) (in vivo; liver, po, 100 mg/kg, AUClast, 100 mg/kg BID, multiple doses): 1380 µg·h/mL
- Cmax (in vivo; [27]): 119000 ng/mL
- MRT last (in vivo; [27]): 8 h
- Tmax (in vivo; [27]): 10 h
- AUC(0-t) (in vivo; liver, po, 200 mg/kg, AUClast, 200 mg/kg QD, multiple doses): 2110 µg·h/mL
- Cmax (in vivo; [28]): 240000 ng/mL
- MRT last (in vivo; [28]): 8.4 h
- Tmax (in vivo; [28]): 10 h
- half-life (in vivo; tumor, oral): 15.6 h
- concentration at 4 h (in vivo; [29]): 51400 ng/mL
- concentration at 10 h (in vivo; [29]): 59200 ng/mL
- concentration at 4 h (in vivo; [30]): 47400 ng/mL
- concentration at 10 h (in vivo; [30]): 71800 ng/mL
- AUC(0-t) (in vivo; tumor, po, 100 mg/kg, AUC 0–12, tumor, median (range), n = 3, after fifth dose of 100 mg/kg BID): 396 µM·h
- AUC(0-t) (in vivo; tumor, po, 200 mg/kg, AUC 0–24, tumor, median (range), n = 3, after third dose of 200 mg/kg QD): 1950 µM·h
- half-life (in vivo; whole blood, oral): 3.9 h
- AUC(0-t) (in vivo; whole blood, po, 100 mg/kg, AUC 0–12, blood, median (range), n = 3, after fifth dose of 100 mg/kg BID): 104 µM·h
- AUC(0-t) (in vivo; whole blood, po, 200 mg/kg, AUC 0–24, blood, median (range), n = 3, after third dose of 200 mg/kg QD): 739 µM·h
- plasma protein binding (plasma proteins): > 99%
- fetal malformations [1]: No fetal malform ations
- NOAEL ([2]; female rats): 20 mg/kg/day
- NOAEL ([2]; male rats): 60 mg/kg/day
- generally well tolerated dose ([2]; rats, up to 13 weeks): ≤ 60 mg/kg/day
- urinary excretion of the oral dose [3]: < 1%
- fluctuation between peak and trough plasma concentrations at steady state ([4]; patients, doses up to 1800 mg QD, ref EGF10027 protocol): 3 fold
- Cmin ([4]; previous clinical studies, 1500 mg QD): 1350 nM
- plasma half-life ([4]; ref EGF10027 protocol, original text): ~14 h
- mutagenicity and clastogenicity [5]: non-mutagenic
- p-HER2 post-treatment OD, mean (HER2; mean of listed subjects): 9.00 OD
- HER2 phosphorylation in tumor (HER2; one patient with ABCB1 SNP C3435T, plasma 1 μM, tumor 9 μM): complete inhibition
- p-HER2 post-treatment OD (HER2; subject 5, tumor 25.60 µM): 10 OD
- p-HER2 post-treatment OD (HER2; subject 1405, tumor 12.76 µM): 17 OD
- concentration at 12 h ([6]; plasma, patients, median (range), 500 mg BID (n = 5), steady state, read-out: Plasma Cmin): 2750 nM
- concentration at 24 h ([6]; plasma, 1000 mg, patients, median (range), 1000 mg QD (n = 5), steady state, read-out: Plasma Cmin): 1540 nM
- concentration at 24 h ([6]; plasma, 1500 mg, patients, median (range), 1500 mg QD (n = 3), steady state, read-out: Plasma Cmin): 390 nM
- concentration at 12 h ([6]; tumor, patients, median (range), 500 mg BID (n = 5), steady state, read-out: Tumor Cmin): 13000 nM
- concentration at 24 h ([6]; tumor, 1000 mg, patients, median (range), 1000 mg QD (n = 5), steady state, read-out: Tumor Cmin): 2290 nM
- concentration at 24 h ([6]; tumor, 1500 mg, patients, median (range), 1500 mg QD (n = 3), steady state, read-out: Tumor Cmin): 2270 nM
- Tumor Cmin ([6]; patients, median (range), 500 mg BID (n = 5), steady state): 12.8 (7.9–31.1) μM
- Lap conc, tumor ([6]; subject 5): 25.60 µM
- Lap conc, tumor ([6]; subject 124): 56.02 µM
- Lap conc, tumor ([6]; subject 801): 1.98 µM
- Lap conc, tumor ([6]; subject 803): 2.08 µM
- Lap conc, tumor ([6]; subject 804): 7.90 µM
- Lap conc, tumor ([6]; subject 1401): 1.02 µM
- Lap conc, tumor ([6]; subject 1403): 9.08 µM
- Lap conc, tumor ([6]; subject 1405): 12.76 µM
- single intravenous dose with no deaths [7]: up to 46 mg/kg
- single oral dose with no deaths [7]: up to 2,000 mg/kg
